pIC50: −log10 of the molar value.
Columns and labels:
[1] = biological target: T1, Cytochrome P450 1A1 (Homo sapiens, UniProt P04798); assay: Inhibition of CYP1A1 (unknown origin); format: ADME
T1 sequence (P04798 whole entry): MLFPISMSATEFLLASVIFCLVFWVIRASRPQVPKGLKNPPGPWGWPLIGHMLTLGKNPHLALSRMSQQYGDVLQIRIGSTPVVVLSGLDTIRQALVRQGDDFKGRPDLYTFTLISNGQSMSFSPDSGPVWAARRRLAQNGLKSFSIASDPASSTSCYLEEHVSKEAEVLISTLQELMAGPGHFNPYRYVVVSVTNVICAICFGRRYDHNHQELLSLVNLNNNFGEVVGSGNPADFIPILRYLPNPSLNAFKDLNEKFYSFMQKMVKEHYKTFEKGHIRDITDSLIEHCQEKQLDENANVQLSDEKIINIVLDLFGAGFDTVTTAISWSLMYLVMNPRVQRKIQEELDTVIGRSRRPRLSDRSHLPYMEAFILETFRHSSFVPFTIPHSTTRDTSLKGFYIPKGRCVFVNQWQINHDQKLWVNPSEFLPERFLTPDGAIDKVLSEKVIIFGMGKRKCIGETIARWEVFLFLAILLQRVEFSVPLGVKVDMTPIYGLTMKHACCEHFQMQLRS

[2] = biological target: T2, Cytochrome P450 1A2 (Homo sapiens, UniProt P05177); assay: Inhibition of CYP1A2 (unknown origin); format: ADME
T2 sequence (P05177 whole entry): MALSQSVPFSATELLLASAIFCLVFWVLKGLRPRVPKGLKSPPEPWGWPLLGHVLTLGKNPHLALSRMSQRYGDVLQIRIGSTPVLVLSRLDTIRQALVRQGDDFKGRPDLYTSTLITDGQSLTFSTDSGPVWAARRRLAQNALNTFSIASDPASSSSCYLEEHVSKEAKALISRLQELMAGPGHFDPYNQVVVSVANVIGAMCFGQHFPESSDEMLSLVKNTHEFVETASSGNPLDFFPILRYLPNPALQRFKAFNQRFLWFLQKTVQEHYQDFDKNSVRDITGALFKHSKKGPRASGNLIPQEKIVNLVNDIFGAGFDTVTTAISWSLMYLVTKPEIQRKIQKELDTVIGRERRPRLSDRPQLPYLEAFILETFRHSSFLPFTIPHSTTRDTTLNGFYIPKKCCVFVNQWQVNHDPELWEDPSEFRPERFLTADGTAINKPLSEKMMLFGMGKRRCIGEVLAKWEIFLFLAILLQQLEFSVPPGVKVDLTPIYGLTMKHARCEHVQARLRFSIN

[3] = Drug uptake in human MCF7 cells measured after 30 mins; format: ADME, cell-based; settings: mcf7, 0.5 h
[4] = test system: CYP1A2 versus CYP1B1; assay: Selectivity ratio of IC50 for inhibition of CYP1A2 (unknown origin) to IC50 for inhibition of CYP1B1 (unknown origin); format: ADME; settings: human; read-out: Ratio IC50
[5] = test system: CYP1A1 versus CYP1B1; assay: Selectivity ratio of IC50 for inhibition of CYP1A1 (unknown origin) to IC50 for inhibition of CYP1B1 (unknown origin); format: ADME; settings: human; read-out: Ratio IC50
[6] = Drug uptake in human HCT-15 cells measured after 30 mins; format: ADME, cell-based; settings: hct-15, 0.5 h
[7] = biological target: T3, Cytochrome P450 1B1 (Homo sapiens, UniProt Q16678); assay: Inhibition of CYP1B1 (unknown origin) by EROD assay; format: ADME
T3 sequence (Q16678 whole entry): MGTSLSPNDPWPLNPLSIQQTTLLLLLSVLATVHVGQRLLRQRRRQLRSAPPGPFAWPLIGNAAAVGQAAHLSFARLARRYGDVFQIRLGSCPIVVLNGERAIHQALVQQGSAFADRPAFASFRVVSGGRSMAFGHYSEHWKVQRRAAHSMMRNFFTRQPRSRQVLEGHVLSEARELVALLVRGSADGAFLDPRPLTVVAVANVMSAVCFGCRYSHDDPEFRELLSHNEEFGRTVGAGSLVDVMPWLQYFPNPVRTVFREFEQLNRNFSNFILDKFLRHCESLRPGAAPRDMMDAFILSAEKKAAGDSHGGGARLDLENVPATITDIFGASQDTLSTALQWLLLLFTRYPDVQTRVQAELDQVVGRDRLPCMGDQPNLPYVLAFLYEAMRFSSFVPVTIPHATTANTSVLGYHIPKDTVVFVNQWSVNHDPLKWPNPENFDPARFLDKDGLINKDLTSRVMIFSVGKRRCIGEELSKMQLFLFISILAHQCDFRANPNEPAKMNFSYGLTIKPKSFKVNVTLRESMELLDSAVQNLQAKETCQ

- pIC50 [1]: < 6.00
- pIC50 [2]: < 6.00
- Drug uptake [3]: 21.56%
- Drug uptake [6]: 25.61%
- pIC50 [7]: 7.32
SMILES: FCCOCCOCCOc1nc(-c2ccc(Br)cc2)nc2ccccc12
- selectivity ratio [4]: > 20.7
- selectivity ratio [5]: > 20.7

— ChEMBL document CHEMBL5329194, “Design, Synthesis, and Evaluation of 18F-Labeling CYP1B1 PET Tracer Based on 2-Phenylquinazolin” (Bioorg Med Chem Lett, 2023)
